# Values of other authors as cited in patent US20050058675A1, “Fullerene compositions for ameliorating dermatological conditions” (priority 2003, published 2005).
# Test system: mice
# Conditions: oral, about 0.5 mg/kg/day
substance,measurement,setting,value
C60(>C(COOH)2)3 [C3],increase in mean survival relative to controls,,~20%
same,mean survival,"controls 23.5+/−5.5 months, p=0.033",28.7+/−3.3 months
